Test results taken from patent US20260062387A1, “SALT-INDUCIBLE KINASE INHIBITOR COMPOUND AND PHARMACEUTICAL COMPOSITION INCLUDING THE SAME” (MITSUBISHI TANABE PHARMA CORPORATION, priority 2023, published 2026).

Tests used:
Format in all cases: biochemical
GST-tagged SIK3 = GST-tagged SIK3 (Homo sapiens (Human), UniProt Q9Y2K2); experiment: SIK3 inhibition test (ADP-Glo Max Assay); settings: enzyme 100 nM, AMARA Peptide 100 μM, ATP 1 mM, 2 hours room temperature
Procedure: (§1) The compounds described in Examples above were used in the SIK1, SIK2, and SIK3 inhibition test.
(§2) The inhibitory activity of the compound for SIK1, SIK2, and SIK3 enzymes was assayed by measuring the amount of ADP, an enzyme reaction product, with ADP-Glo™ Max Assay (Promega). Enzymes, specifically, GST-tagged SIK1 (Carna Biosciences, Inc.), GST-tagged SIK2 (Carna Biosciences, Inc.), and GST-tagged SIK3 (SignalChem) were prepared in a reaction buffer (15 mM tris-hydrochloric acid buffer (pH 7.5), 0.001% Triton X-100, 0.01% BSA) so that the final concentration would be 20 nM, 3 nM, and 100 nM. Enzyme solutions were thus formed. In a reaction buffer, AMARA Peptide (SignalChem) as a substrate with a final concentration of 200 μM (SIK1, SIK2) or 100 μM (SIK3), ATP (Promega) with a final concentration of 1 mM, and magnesium chloride with a final concentration of 5 mM were prepared. Substrate solutions were thus formed. The enzyme solution, the substrate solution, and a DMSO solution of a concentration of the test compound were mixed together and reacted at room temperature for 2 hours. After the reaction, ADP-Glo™ Reagent (Promega) was added, and the reaction was performed at room temperature for 30 minutes. Subsequently, ADP-Glo™ Max Detection Reagent (Promega) was added, and the reaction was performed at room temperature for 30 minutes. The emission by the luciferase reaction was measured with PHERAstar FSX (BMG LABTECH).
(§3) The inhibitory ratio (%) was calculated by: % Inhibition={1−(intensity of sample−intensity of blank (no enzyme solution added))/(intensity of control (DMSO alone)−intensity of blank)}×100. The inhibitory concentration IC50 was calculated based on 16 data values obtained in the concentration response test.

GST-tagged SIK2 = GST-tagged SIK2 (Homo sapiens (Human), UniProt Q9H0K1); experiment: SIK2 inhibition test (ADP-Glo Max Assay); settings: enzyme 3 nM, AMARA Peptide 200 μM, ATP 1 mM, 2 hours room temperature
Sequence of GST-tagged SIK2 (Q9H0K1 whole entry): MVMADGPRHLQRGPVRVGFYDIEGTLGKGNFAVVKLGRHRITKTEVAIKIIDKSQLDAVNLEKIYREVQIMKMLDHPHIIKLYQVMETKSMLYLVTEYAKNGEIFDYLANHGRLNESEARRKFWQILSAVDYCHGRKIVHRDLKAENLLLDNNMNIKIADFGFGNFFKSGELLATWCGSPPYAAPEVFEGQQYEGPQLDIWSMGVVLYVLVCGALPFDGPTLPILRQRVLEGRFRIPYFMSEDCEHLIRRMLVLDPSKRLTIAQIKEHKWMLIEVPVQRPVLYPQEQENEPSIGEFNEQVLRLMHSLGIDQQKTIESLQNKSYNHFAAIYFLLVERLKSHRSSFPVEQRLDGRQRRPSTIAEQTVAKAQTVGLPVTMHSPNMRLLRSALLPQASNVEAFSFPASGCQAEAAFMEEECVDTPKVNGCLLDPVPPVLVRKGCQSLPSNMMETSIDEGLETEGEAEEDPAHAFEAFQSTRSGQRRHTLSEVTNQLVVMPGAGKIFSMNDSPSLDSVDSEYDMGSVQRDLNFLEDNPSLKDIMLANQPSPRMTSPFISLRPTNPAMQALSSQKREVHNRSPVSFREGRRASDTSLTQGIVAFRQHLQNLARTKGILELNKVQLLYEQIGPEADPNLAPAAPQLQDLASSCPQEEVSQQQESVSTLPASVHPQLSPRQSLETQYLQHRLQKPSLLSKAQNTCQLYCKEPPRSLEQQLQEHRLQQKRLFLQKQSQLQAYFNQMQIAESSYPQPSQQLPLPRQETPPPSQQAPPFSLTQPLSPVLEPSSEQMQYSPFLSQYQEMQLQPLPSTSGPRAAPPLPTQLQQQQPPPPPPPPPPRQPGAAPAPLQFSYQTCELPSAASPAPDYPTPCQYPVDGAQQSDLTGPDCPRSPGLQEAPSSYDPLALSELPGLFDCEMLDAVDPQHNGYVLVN
Procedure: as §1, §2, §3

GST-tagged SIK1 = GST-tagged SIK1 (Homo sapiens (Human), UniProt P57059); experiment: SIK1 inhibition test (ADP-Glo Max Assay); settings: enzyme 20 nM, AMARA Peptide 200 μM, ATP 1 mM, 2 hours room temperature
Sequence of GST-tagged SIK1 (P57059 whole entry): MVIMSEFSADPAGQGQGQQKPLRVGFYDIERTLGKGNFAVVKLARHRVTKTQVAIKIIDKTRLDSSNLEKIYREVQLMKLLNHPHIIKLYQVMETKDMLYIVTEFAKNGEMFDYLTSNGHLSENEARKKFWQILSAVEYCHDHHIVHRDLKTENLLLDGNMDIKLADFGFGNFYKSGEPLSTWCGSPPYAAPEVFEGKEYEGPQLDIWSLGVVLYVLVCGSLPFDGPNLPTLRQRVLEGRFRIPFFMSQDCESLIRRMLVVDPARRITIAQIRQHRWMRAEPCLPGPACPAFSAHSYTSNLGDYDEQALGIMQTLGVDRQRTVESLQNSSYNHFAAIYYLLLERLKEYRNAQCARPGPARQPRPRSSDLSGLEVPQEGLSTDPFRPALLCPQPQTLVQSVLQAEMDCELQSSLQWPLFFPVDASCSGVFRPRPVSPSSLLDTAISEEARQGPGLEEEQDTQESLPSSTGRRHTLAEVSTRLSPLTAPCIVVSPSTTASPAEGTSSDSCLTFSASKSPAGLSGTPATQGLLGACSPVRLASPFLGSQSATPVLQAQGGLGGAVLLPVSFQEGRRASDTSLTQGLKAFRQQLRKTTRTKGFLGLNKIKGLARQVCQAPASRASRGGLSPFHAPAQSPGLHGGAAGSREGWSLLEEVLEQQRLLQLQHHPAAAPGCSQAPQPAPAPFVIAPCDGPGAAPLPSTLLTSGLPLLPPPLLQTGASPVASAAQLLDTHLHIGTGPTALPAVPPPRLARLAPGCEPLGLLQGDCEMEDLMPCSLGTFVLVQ
Procedure: as §1, §2, §3

Sequence of GST-tagged SIK3 (Q9Y2K2 whole entry): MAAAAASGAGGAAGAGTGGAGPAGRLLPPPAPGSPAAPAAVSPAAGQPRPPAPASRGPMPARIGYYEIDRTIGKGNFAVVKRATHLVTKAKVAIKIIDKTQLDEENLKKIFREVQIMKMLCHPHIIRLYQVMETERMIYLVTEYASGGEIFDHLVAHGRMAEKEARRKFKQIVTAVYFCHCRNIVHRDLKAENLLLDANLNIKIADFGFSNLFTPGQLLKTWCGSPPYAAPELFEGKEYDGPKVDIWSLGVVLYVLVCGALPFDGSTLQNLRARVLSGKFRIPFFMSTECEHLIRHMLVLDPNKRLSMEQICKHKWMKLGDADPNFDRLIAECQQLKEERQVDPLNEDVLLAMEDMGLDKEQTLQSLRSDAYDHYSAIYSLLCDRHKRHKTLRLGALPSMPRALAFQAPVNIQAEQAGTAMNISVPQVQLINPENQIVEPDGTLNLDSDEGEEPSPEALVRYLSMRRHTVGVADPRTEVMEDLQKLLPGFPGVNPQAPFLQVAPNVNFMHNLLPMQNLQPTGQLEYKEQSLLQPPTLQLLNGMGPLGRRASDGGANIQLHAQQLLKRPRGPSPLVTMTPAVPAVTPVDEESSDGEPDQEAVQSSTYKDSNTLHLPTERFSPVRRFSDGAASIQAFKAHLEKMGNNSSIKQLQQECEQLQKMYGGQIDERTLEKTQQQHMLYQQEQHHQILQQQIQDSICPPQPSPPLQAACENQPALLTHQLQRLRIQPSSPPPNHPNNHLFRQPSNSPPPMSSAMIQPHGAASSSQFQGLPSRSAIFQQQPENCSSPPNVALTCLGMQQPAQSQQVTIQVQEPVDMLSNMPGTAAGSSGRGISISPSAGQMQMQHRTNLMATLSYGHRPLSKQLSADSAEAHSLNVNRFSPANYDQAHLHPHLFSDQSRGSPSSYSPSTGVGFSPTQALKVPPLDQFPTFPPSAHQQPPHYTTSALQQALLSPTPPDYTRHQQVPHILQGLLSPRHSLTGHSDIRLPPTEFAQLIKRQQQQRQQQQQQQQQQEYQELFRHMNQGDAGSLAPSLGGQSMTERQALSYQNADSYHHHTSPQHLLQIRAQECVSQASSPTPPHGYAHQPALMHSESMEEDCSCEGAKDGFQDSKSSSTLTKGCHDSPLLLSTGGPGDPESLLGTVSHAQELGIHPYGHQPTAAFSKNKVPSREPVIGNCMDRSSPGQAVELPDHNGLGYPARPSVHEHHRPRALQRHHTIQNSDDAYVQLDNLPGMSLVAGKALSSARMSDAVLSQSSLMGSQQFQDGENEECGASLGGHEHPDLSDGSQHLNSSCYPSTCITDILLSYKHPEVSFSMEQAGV

| IC50 (GST-tagged SIK3) [nM] | IC50 (GST-tagged SIK2) [nM] | IC50 (GST-tagged SIK1) [nM] | SMILES |
| --- | --- | --- | --- |
| 5.1 | 3.2 | 10.1 | COc1cc(-c2c3c(C#N)cc(-c4cnn(CCS(C)(=O)=O)c4)cc3nn2C)cc(OC(F)F)c1C(=O)NCC1(F)CC1 [Example 54, 4-[4-cyano-2-methyl-6-[1-(2-methylsulfonylethyl)pyrazol-4-yl]indazol-3-yl]-2-(difluoromethoxy)-N-[(1-fluorocyclopropyl)methyl]-6-methoxybenzamide] |
| 1.3 | 2.4 | 10.2 | COc1cc(-c2c3c(C(F)F)cc(-c4cn[nH]c4)cc3nn2C)cc(OC(F)F)c1C(=O)N[C@@H]1CC1(F)F [Example 150, N-[(1R)-2,2-difluorocyclopropyl]-2-(difluoromethoxy)-4-[4-(difluoromethyl)-2-methyl-6-(1H-pyrazol-4-yl)indazol-3-yl]-6-methoxybenzamide] |
| 7.8 | 8.3 | 19.8 | COc1cc(-c2c3c(OC)cc(-c4cnn(C)c4)cc3nn2C)cc(OC(F)F)c1C(=O)N[C@@H]1C[C@@H]1F [Example 2, 2-(difluoromethoxy)-N-[(1R,2S)-2-fluorocyclopropyl]-6-methoxy-4-[4-methoxy-2-methyl-6-(1-methylpyrazol-4-yl)indazol-3-yl]benzamide] |
| 11.5 | 8.9 | 5 | COc1cc(-c2c3c(OCCCO)cc(-c4cnn(C)c4)cc3nn2C)cc(OC(F)F)c1C(=O)N[C@@H]1C[C@@H]1F [Example 4, 2-(difluoromethoxy)-N-[(1R,2S)-2-fluorocyclopropyl]-4-[4-(3-hydroxypropoxy)-2-methyl-6-(1-methylpyrazol-4-yl)indazol-3-yl]-6-methoxybenzamide] |
| 19.1 | 1.8 | 10.3 | COc1cc(-c2c3c(OCCO)cc(-c4cnn(C)c4)cc3nn2C)cc(OC(F)F)c1C(N)=O [Example 145, 2-(difluoromethoxy)-4-[4-(2-hydroxyethoxy)-2-methyl-6-(1-methylpyrazol-4-yl)indazol-3-yl]-6-methoxybenzamide] |
| 7.8 | 3.7 | 10.1 | COc1cc(-c2c3c(C#N)cc(-c4cnn(C[C@H](C)O)c4)cc3nn2C)cc2c1C(=O)NCC2(C)C [Example 144, 6-[1-[(2S)-2-hydroxypropyl]pyrazol-4-yl]-3-(8-methoxy-4,4-dimethyl-1-oxo-2,3-dihydroisoquinolin-6-yl)-2-methylindazole-4-carbonitrile] |
| 13.4 | 3.4 | 7.6 | CCOc1cc(-c2cnn(C)c2)cc2nn(C)c(-c3cc(OC)c(C(N)=O)c(OC(F)F)c3)c12 [Example 136, 2-(difluoromethoxy)-4-[4-ethoxy-2-methyl-6-(1-methylpyrazol-4-yl)indazol-3-yl]-6-methoxybenzamide] |
| 11.9 | 5.9 | 11 | COc1cc(-c2cnn(C[C@H](C)O)c2)cc2nn(C)c(-c3cc(OC(F)F)c4c(c3)[C@@H](C)CNC4=O)c12 (single isomer, unassigned) [Example 176] |
| 1.1 | 1.3 | 6 | COc1cc(-c2c3c(C#N)cc(-c4cn[nH]c4)cc3nn2C)cc(OC(F)F)c1C(=O)N[C@@H]1CC1(F)F [Example 148, 4-[4-cyano-2-methyl-6-(1H-pyrazol-4-yl)indazol-3-yl]-N-[(1R)-2,2-difluorocyclopropyl]-2-(difluoromethoxy)-6-methoxybenzamide] |
| 14.4 | 3.4 | 7.2 | CCOCCn1cc(-c2cc(C#N)c3c(-c4cc(OC)c5c(c4)C(C)(C)CNC5=O)n(C)nc3c2)cn1 [Example 152, 6-[1-(2-ethoxyethyl)pyrazol-4-yl]-3-(8-methoxy-4,4-dimethyl-1-oxo-2,3-dihydroisoquinolin-6-yl)-2-methylindazole-4-carbonitrile] |
| 3 | 13.7 | 16.6 | CCn1cc(-c2cc(C(F)F)c3c(-c4cc(OC)c(C(N)=O)c(OC(F)F)c4)n(C)nc3c2)cn1 [Example 112, 2-(difluoromethoxy)-4-[4-(difluoromethyl)-6-(1-ethylpyrazol-4-yl)-2-methylindazol-3-yl]-6-methoxybenzamide] |
| 11.6 | 1.4 | 5.1 | CCOc1cc(-c2cnn(C)c2)cc2nn(C)c(-c3cc(OC)c4c(c3)[C@@H](C)CNC4=O)c12 (single isomer, unassigned) [Example 163] |
| 4.3 | 14.6 | 18.5 | COc1cc(-c2c3c(C(F)F)cc(-c4cnn(C)c4)cc3nn2C)cc(OC(F)F)c1C(N)=O [Example 87, 2-(difluoromethoxy)-4-[4-(difluoromethyl)-2-methyl-6-(1-methylpyrazol-4-yl)indazol-3-yl]-6-methoxybenzamide] |
| 2.3 | 5 | 6.7 | COc1cc(-c2c3c(C#N)cc(-c4cnn(C[C@H](C)O)c4)cc3nn2C)cc(OC(F)F)c1C(=O)N[C@@H]1CC1(F)F [Example 94, 4-[4-cyano-6-[1-[(2S)-2-hydroxypropyl]pyrazol-4-yl]-2-methylindazol-3-yl]-N-[(1R)-2,2-difluorocyclopropyl]-2-(difluoromethoxy)-6-methoxybenzamide] |
| 9.2 | 6 | 6.2 | COc1cc(-c2c3c(OCc4cnn(C)c4)cc(-c4cnn(C)c4)cc3nn2C)cc(OC(F)F)c1C(=O)N1CC(O)(C(F)(F)F)C1 [Example 52, [2-(difluoromethoxy)-6-methoxy-4-[2-methyl-6-(1-methylpyrazol-4-yl)-4-[(1-methylpyrazol-4-yl)methoxy]indazol-3-yl]phenyl]-[3-hydroxy-3-(trifluoromethyl)azetidin-1-yl]methanone] |
| 9.4 | 8.6 | 18.9 | COc1cc(-c2c3c(OC)cc(-c4cnn(C)c4)cc3nn2C)cc(OC(F)F)c1C(=O)N[C@@H]1CC1(F)F [Example 45, N-[(1R)-2,2-difluorocyclopropyl]-2-(difluoromethoxy)-6-methoxy-4-[4-methoxy-2-methyl-6-(1-methylpyrazol-4-yl)indazol-3-yl]benzamide] |
| 5.9 | 6.2 | 17.2 | COc1cc(-c2c3c(C#N)cc(-c4cnn(CC(C)C)c4)cc3nn2C)cc(OC(F)F)c1C(N)=O [Example 135, 4-[4-cyano-2-methyl-6-[1-(2-methylpropyl)pyrazol-4-yl]indazol-3-yl]-2-(difluoromethoxy)-6-methoxybenzamide] |
| 5.7 | 3.3 | 13.6 | COCCn1cc(-c2cc(C(F)F)c3c(-c4cc(OC)c(C(N)=O)c(OC(F)F)c4)n(C)nc3c2)cn1 [Example 134, 2-(difluoromethoxy)-4-[4-(difluoromethyl)-6-[1-(2-methoxyethyl)pyrazol-4-yl]-2-methylindazol-3-yl]-6-methoxybenzamide] |
| 4.8 | 12.7 | 8.5 | COc1cc(-c2c3c(C(F)F)cc(-c4cnn(C[C@H](C)O)c4)cc3nn2C)cc(OC(F)F)c1C(=O)N1CC(O)(C(F)F)C1 [Example 67, [2-(difluoromethoxy)-4-[4-(difluoromethyl)-6-[1-[(2S)-2-hydroxypropyl]pyrazol-4-yl]-2-methylindazol-3-yl]-6-methoxyphenyl]-[3-(difluoromethyl)-3-hydroxyazetidin-1-yl]methanone] |
| 3.2 | 13.8 | 8.7 | COc1cc(-c2c3c(C#N)cc(-c4cnn(CC(C)(C)O)c4)cc3nn2C)cc(OC(F)F)c1C(=O)N1CC(O)(C(F)(F)F)C1 [Example 16] |

| SMILES | IC50 (GST-tagged SIK3) [nM] | IC50 (GST-tagged SIK2) [nM] | IC50 (GST-tagged SIK1) [nM] |
| --- | --- | --- | --- |
| COc1cc(-c2c3c(C#N)cc(-c4cnn(CCN5CC(F)(F)C5)c4)cc3nn2C)cc(OC(F)F)c1C(=O)NC[C@@H]1CC1(F)F (stereo in doubt) [Example 108, 4-[4-cyano-6-[1-[2-(3,3-difluoroazetidin-1-yl)ethyl]pyrazol-4-yl]-2-methylindazol-3-yl]-2-(difluoromethoxy)-6-methoxy-N-[[rel-(1R)-2,2-difluorocyclopropyl]methyl]benzamide] | 2.4 | 6.5 | 16.8 |
| COc1cc(-c2c3c(OCC[C@H](C)O)cc(-c4cnn(C)c4)cc3nn2C)cc(OC(F)F)c1C(=O)N1CC(O)(C(F)(F)F)C1 [Example 47, [2-(difluoromethoxy)-4-[4-[(3S)-3-hydroxybutoxy]-2-methyl-6-(1-methylpyrazol-4-yl)indazol-3-yl]-6-methoxyphenyl]-[3-hydroxy-3-(trifluoromethyl)azetidin-1-yl]methanone] | 19.2 | 16.2 | 9 |
